According to patent US8778966B2, “Quinolinone derivatives as PARP and tank inhibitors” (Janssen Pharmaceutica, NV, priority 2007, dated 2014):
Like-named read-outs stand apart in the source and are kept apart here.

Tests used:
Type in all cases: cell-based, human
[1] = tested on: HCT116 cells; test: Mitotic arrest assay on HCT116 cells (phospho-histone H3 Ser10); conditions: lowest active dose; for minimal effective concentration: Homo sapiens, HCT-116, HCT116 cells, read-out: Mitotic arrest HCT116 LAD (converted)
Summary of the method: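 Read-out is imaging of phospho-histone H3 Ser10 (Alexa Fluor 488) with Hoechst nuclear counting, after 6 h compound exposure at 37 °C, DMSO ≤0.1%. LAD is the lowest dose at which the blank-corrected value over SD exceeds 5; triplicates, low-count wells excluded.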

[2] = tested on: HCT116 cells; test: Antiproliferative activity, Alamar Blue assay, HCT116 cells; design: key to HCT116 antiproliferative activity pIC50: pIC50 = -log IC50 (IC50: conc. reducing growth to 50% of control); conditions: for IC50: Homo sapiens, HCT-116, HCT116 cells, read-out: HCT116 antiproliferative activity pIC50 (converted)
Summary of the method: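 Readout is resazurin fluorescence (ex 540, em 590 nm) after a 4 h dye incubation at 37 °C, following 4-day compound treatment of HCT116 cells plated 24 h earlier. Results expressed as % viable cells versus untreated; pIC50 derived from probit-fitted IC50.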

[3] = tested on: PC-3 cells; test: Antiproliferative activity, Alamar Blue assay, PC-3 cells; conditions: for IC50: Homo sapiens, PC-3, PC3 cells, read-out: PC3 antiproliferative activity pIC50 (converted)
Summary of the method: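 Resazurin-based fluorescence (540 nm ex/590 nm em) measured after 4-day compound treatment plus 24 hrs dye incubation at 37° C. Cells plated at 4.5×10^3 cells/ml, adhered 24 hr first. pIC50 from probit-derived IC50 on % viable cells versus untreated, triplicate wells.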

Row | IC50 [2] [nM] | IC50 [3] [nM] | HCT116 antiproliferative activity pIC50 ([2]; HCT116 cells) | PC3 antiproliferative activity pIC50 ([3]; PC3 cells) | IC50 ([2]; Alamar Blue) [nM] | IC50 ([3]; Alamar Blue) [nM] | SMILES | minimal effective concentration [1] [µM] | Mitotic arrest HCT116 LAD ([1]; HCT116 cells, the values are: pLAD (−log M lowest active dose))
1 | > 10000 | > 10000 |  |  |  |  | CCc1cc2ccc([C@](C)(C#N)Cc3ccccc3)cc2[nH]c1=O (single isomer, unassigned) [Compound 45] | > 10 | 
2 | 158 | 398 |  |  |  |  | CCc1cc2ccc([C@@](C)(C#N)Cc3ccccc3)cc2[nH]c1=O (single isomer, unassigned) [Compound 46] | 0.316 | 
3 |  |  | <5 | <5 |  |  | CCc1cc2ccc(C(C)(C#N)CC3COc4ccccc4O3)cc2[nH]c1=O (single isomer, unassigned) [Compound 47] |  | 5.5
4 |  |  |  |  | 5010 | 7940 | CCc1cc2ccc([C@](C)(C#N)Cc3nc(OC)cc(OC)n3)cc2[nH]c1=O (single isomer, unassigned) [Compound 52] | 3 | 
5 |  |  |  |  | 39.8 | 39.8 | CCc1cc2ccc([C@@](C)(C#N)Cc3nc(OC)cc(OC)n3)cc2[nH]c1=O (single isomer, unassigned) [Compound 53] | 0.02 | 
6 | 2510 | 7940 |  |  |  |  | CCc1cc2ccc(C(C)(C#N)Cc3cccc(CN(C)C)c3)cc2[nH]c1=O (centres unmarked) [Compound 7] | 3.16 | 
7 | 631 | 631 |  |  |  |  | CCc1cc2ccc(C(C)(C#N)Cc3cccc(COC)c3)cc2[nH]c1=O (centres unmarked) [Compound 8] | 0.1 | 
8 | 251 | 631 |  |  |  |  | CCc1cc2ccc(C(C)(C#N)Cc3cccc(CO)c3)cc2[nH]c1=O (centres unmarked) [Compound 9] | 0.316 | 
9 | > 10000 | > 10000 |  |  |  |  | CCc1cc2ccc(C(C#N)(Cc3ccccc3)CC3CC3)cc2[nH]c1=O (centres unmarked) [Compound 28] | 3.16 | 
10 | 7940 | > 10000 |  |  |  |  | CC(C#N)(Cc1ccccc1)c1ccc2cc(CO)c(=O)[nH]c2c1 (centres unmarked) [Compound 40] | 3.16 | 
11 | 631 | 631 |  |  |  |  | CCc1cc2ccc(C(C)(C#N)Cc3c(F)ccc(C)c3F)cc2[nH]c1=O (centres unmarked) [Compound 41] | 0.316 | 
12 | 158 | 316 |  |  |  |  | CCc1cc2ccc(C(C)(C#N)Cc3nnsc3Cl)cc2[nH]c1=O (centres unmarked) [Compound 42] | 0.1 | 
13 | 158 | 158 |  |  |  |  | CCc1cc2ccc(C(C)(C#N)Cc3nc(OC)cc(OC)n3)cc2[nH]c1=O (centres unmarked) [Compound 43] | 0.0316 | 
14 |  |  |  |  |  |  | CCc1cc2ccc(C(C)(C#N)Cc3ccccc3)cc2[nH]c1=O (centres unmarked) [Compound 44] | 0.316 | 
15 | 200 | 158 |  |  |  |  | CCc1cc2ccc(C(C)(C#N)Cc3cccc(Br)c3)cc2[nH]c1=O (centres unmarked) [Compound 49] | 0.1 | 
16 | 126 | 200 |  |  |  |  | CCc1cc2ccc(C(C)(C#N)Cc3cccc(C#N)c3)cc2[nH]c1=O (centres unmarked) [Compound 51] | 0.1 | 
17 | 501 | 794 |  |  |  |  | CCc1cc2ccc(C(C)(C#N)CCOc3ccc([N+](=O)[O-])cc3)cc2[nH]c1=O (centres unmarked) [Compound 54] | 0.1 | 
18 | > 10000 | > 10000 |  |  |  |  | CCc1cc2ccc(C(C)(C#N)Cc3cccc(CN4CCN(C)CC4)c3)cc2[nH]c1=O (centres unmarked) [Compound 57] | > 10 | 
19 | 501 | 2000 |  |  |  |  | CCc1cc2ccc(C(C)(C#N)Cc3cccc(CN4CCOCC4)c3)cc2[nH]c1=O (centres unmarked) [Compound 58] | 3.16 | 

Row | IC50 [2] [nM] | IC50 [3] [nM] | HCT116 antiproliferative activity pIC50 ([2]; HCT116 cells) | PC3 antiproliferative activity pIC50 ([3]; PC3 cells) | IC50 ([2]; Alamar Blue) [nM] | IC50 ([3]; Alamar Blue) [nM] | SMILES | minimal effective concentration [1] [µM] | Mitotic arrest HCT116 LAD ([1]; HCT116 cells, the values are: pLAD (−log M lowest active dose))
20 | 3160 | 10000 |  |  |  |  | CCc1cc2ccc(C(C)(C#N)Cc3cccc(CNC)c3)cc2[nH]c1=O (centres unmarked) [Compound 59] | 10 | 
21 | 6310 | 7940 |  |  |  |  | CCc1cc2ccc(C(C)(C#N)Cc3cccc(CNCCOC)c3)cc2[nH]c1=O (centres unmarked) [Compound 60] | 1 | 
22 | > 10000 | > 10000 |  |  |  |  | CCc1cc2ccc(C(C)(C#N)Cc3cccc(CNCCN4CCOCC4)c3)cc2[nH]c1=O (centres unmarked) [Compound 61] | 10 | 
23 | 7940 | 7940 |  |  |  |  | CCc1cc2ccc(C(C)(C#N)Cc3cccc(C(=O)NCCOC)c3)cc2[nH]c1=O (centres unmarked) [Compound 62] | 1 | 
24 | 1580 | 3160 |  |  |  |  | CCc1cc2ccc(C(C)(C#N)Cc3cccc(C(=O)N(C)C)c3)cc2[nH]c1=O (centres unmarked) [Compound 63] | 0.316 | 
25 | > 10000 | > 10000 |  |  |  |  | CCc1cc2ccc(C(C)(C#N)Cc3cccc(N4CCNCC4)c3)cc2[nH]c1=O (centres unmarked) [Compound 64] | 3.16 | 
26 |  |  |  |  |  |  | CCc1cc2ccc(C(C)(C#N)Cc3cccc(N4CCCCC4)c3)cc2[nH]c1=O (centres unmarked) [Compound 65] | 1 | 
27 | 5010 | 5010 |  |  |  |  | CCc1cc2ccc(C(C)(C#N)Cc3cccc(N4CCN(C)CC4)c3)cc2[nH]c1=O (centres unmarked) [Compound 66] | 3.16 | 
28 | 1580 | 1260 |  |  |  |  | CCc1cc2ccc(C(C)(C#N)Cc3cccc(OCC4CC4)c3)cc2[nH]c1=O (centres unmarked) [Compound 67] | 0.316 | 
29 | 6310 | 7940 |  |  |  |  | CCc1cc2ccc(C(C)(C#N)Cc3cccc(OCCCN4CCOCC4)c3)cc2[nH]c1=O (centres unmarked) [Compound 68] | 10 | 
30 | 7940 | 7940 |  |  |  |  | CCc1cc2ccc(C(C)(C#N)Cc3cccc(OCCCN4CCN(C)CC4)c3)cc2[nH]c1=O (centres unmarked) [Compound 69] | 10 | 
31 | 631 | 2510 |  |  |  |  | Cc1cc2ccc(C(C)(C#N)Cc3noc(-c4cccc(C(F)(F)F)c4)n3)cc2[nH]c1=O (centres unmarked) [Compound 70] | 1 | 
32 | 5010 | 2000 |  |  |  |  | Cc1cc2ccc(C(C)(C#N)Cc3cc4ccccc4s3)cc2[nH]c1=O (centres unmarked) [Compound 71] | 0.316 | 
33 | 794 | 2000 |  |  |  |  | Cc1cc2ccc(C(C)(C#N)Cc3ccc(Cl)s3)cc2[nH]c1=O (centres unmarked) [Compound 72] | 0.1 | 
34 | 794 | 2000 |  |  |  |  | Cc1cc2ccc(C(C)(C#N)Cc3ccc(C(F)(F)F)o3)cc2[nH]c1=O (centres unmarked) [Compound 73] | 0.316 | 
35 | 501 | 1000 |  |  |  |  | Cc1cc2ccc(C(C)(C#N)Cc3cccc4cccnc34)cc2[nH]c1=O (centres unmarked) [Compound 74] | 0.316 | 
36 | 126 | 200 |  |  |  |  | Cc1cc2ccc(C(C)(C#N)Cc3nc4ccccc4s3)cc2[nH]c1=O (centres unmarked) [Compound 75] | 0.1 | 
37 | 251 | 631 |  |  |  |  | Cc1cc2ccc(C(C)(C#N)Cc3ccccc3)cc2[nH]c1=O (centres unmarked) [Compound 76] | 0.316 | 
38 | 1000 | 1580 |  |  |  |  | CCc1cc2ccc(C(C)(C#N)Cc3ccc(OC)c(C#N)c3)cc2[nH]c1=O (centres unmarked) [Compound 77] | 0.316 | 

Row | SMILES | IC50 [2] [nM] | IC50 [3] [nM] | HCT116 antiproliferative activity pIC50 ([2]; HCT116 cells) | PC3 antiproliferative activity pIC50 ([3]; PC3 cells) | IC50 ([2]; Alamar Blue) [nM] | IC50 ([3]; Alamar Blue) [nM] | minimal effective concentration [1] [µM] | Mitotic arrest HCT116 LAD ([1]; HCT116 cells, the values are: pLAD (−log M lowest active dose))
39 | CCc1cc2ccc(C(C)(C#N)Cc3cccc(C#C[Si](C)(C)C)c3)cc2[nH]c1=O (centres unmarked) [Compound 1] |  |  |  |  | 200 | 631 | 1 | 
40 | CCOP(=O)(OCC)c1cccc(CC(C)(C#N)c2ccc3cc(CC)c(=O)[nH]c3c2)c1 (centres unmarked) [Compound 50] | 1260 | 794 |  |  |  |  | 0.316 | 
